Measurements as given in ChEMBL document CHEMBL4411296, “Design and development of Isatin-triazole hydrazones as potential inhibitors of microtubule affinity-regulating kinase 4 for the therapeutic management of cell proliferation and metastasis” (Eur J Med Chem, 2019).

Assays:
Type in all cases: functional
SK-OV-3 = experiment: Growth inhibition of human SKOV3 cells assessed as cell growth at 10 uM after 48 hrs by sulforhodamine B assay relative to control; settings: SK-OV-3, 48 h, read-out: Activity
RXF 393 = experiment: Growth inhibition of human RXF393 cells assessed as cell growth at 10 uM after 48 hrs by sulforhodamine B assay relative to control; settings: RXF 393, 48 h, read-out: Activity
MCF7 = experiment: Growth inhibition of human MCF7 cells assessed as cell growth at 10 uM after 48 hrs by sulforhodamine B assay relative to control; settings: MCF7, 48 h, read-out: Activity
CCRF-CEM = experiment: Growth inhibition of human CCRF-CEM cells assessed as cell growth at 10 uM after 48 hrs by sulforhodamine B assay relative to control; settings: read-out: Activity
BT-549 = experiment: Growth inhibition of human BT549 cells assessed as cell growth at 10 uM after 48 hrs by sulforhodamine B assay relative to control; settings: BT-549, 48 h, read-out: Activity
Hs-578T = experiment: Growth inhibition of human Hs 578T cells assessed as cell growth at 10 uM after 48 hrs by sulforhodamine B assay relative to control; settings: read-out: Activity
786-0 = experiment: Growth inhibition of human 786-0 cells assessed as cell growth at 10 uM after 48 hrs by sulforhodamine B assay relative to control; settings: 786-0, 48 h, read-out: Activity
EKVX = experiment: Growth inhibition of human EKVX cells assessed as cell growth at 10 uM after 48 hrs by sulforhodamine B assay relative to control; settings: read-out: Activity
HT-29 = experiment: Growth inhibition of human HT-29 cells assessed as cell growth at 10 uM after 48 hrs by sulforhodamine B assay relative to control; settings: HT-29, 48 h, read-out: Activity
MOLT-4 = experiment: Growth inhibition of human MOLT4 cells assessed as cell growth at 10 uM after 48 hrs by sulforhodamine B assay relative to control; settings: MOLT-4, 48 h, read-out: Activity
SK-MEL-2 = experiment: Growth inhibition of human SK-MEL-2 cells assessed as cell growth at 10 uM after 48 hrs by sulforhodamine B assay relative to control; settings: SK-MEL-2, 48 h, read-out: Activity
U-251 = experiment: Growth inhibition of human U251 cells assessed as cell growth at 10 uM after 48 hrs by sulforhodamine B assay relative to control; settings: U-251, 48 h, read-out: Activity
HOP-92 = experiment: Growth inhibition of human HOP92 cells assessed as cell growth at 10 uM after 48 hrs by sulforhodamine B assay relative to control; settings: HOP-92, 48 h, read-out: Activity
MDA-MB-468 = experiment: Growth inhibition of human MDA-MB-468 cells assessed as cell growth at 10 uM after 48 hrs by sulforhodamine B assay relative to control; settings: MDA-MB-468, 48 h, read-out: Activity
NCI-H23 = experiment: Growth inhibition of human NCI-H23 cells assessed as cell growth at 10 uM after 48 hrs by sulforhodamine B assay relative to control; settings: NCI-H23, 48 h, read-out: Activity
SNB-75 = experiment: Growth inhibition of human SNB75 cells assessed as cell growth at 10 uM after 48 hrs by sulforhodamine B assay relative to control; settings: SNB-75, 48 h, read-out: Activity
UO-31 = experiment: Growth inhibition of human UO31 cells assessed as cell growth at 10 uM after 48 hrs by sulforhodamine B assay relative to control; settings: UO-31, 48 h, read-out: Activity
ACHN = experiment: Growth inhibition of human ACHN cells assessed as cell growth at 10 uM after 48 hrs by sulforhodamine B assay relative to control; settings: read-out: Activity
SK-MEL-28 = experiment: Growth inhibition of human SK-MEL-28 cells assessed as cell growth at 10 uM after 48 hrs by sulforhodamine B assay relative to control; settings: SK-MEL-28, 48 h, read-out: Activity
NCI-H522 = experiment: Growth inhibition of human NCI-H522 cells assessed as cell growth at 10 uM after 48 hrs by sulforhodamine B assay relative to control; settings: NCI-H522, 48 h, read-out: Activity
T47D = experiment: Growth inhibition of human T47D cells assessed as cell growth at 10 uM after 48 hrs by sulforhodamine B assay relative to control; settings: read-out: Activity
COLO 205 = experiment: Growth inhibition of human COLO205 cells assessed as cell growth at 10 uM after 48 hrs by sulforhodamine B assay relative to control; settings: COLO 205, 48 h, read-out: Activity
IGROV-1 = experiment: Growth inhibition of human IGROV1 cells assessed as cell growth at 10 uM after 48 hrs by sulforhodamine B assay relative to control; settings: IGROV-1, 48 h, read-out: Activity
SNB-19 = experiment: Growth inhibition of human SNB19 cells assessed as cell growth at 10 uM after 48 hrs by sulforhodamine B assay relative to control; settings: SNB-19, 48 h, read-out: Activity
MDA-MB-231 = experiment: Growth inhibition of human MDA-MB-231 cells assessed as cell growth at 10 uM after 48 hrs by sulforhodamine B assay relative to control; settings: MDA-MB-231, 48 h, read-out: Activity
DU-145 = experiment: Growth inhibition of human DU145 cells assessed as cell growth at 10 uM after 48 hrs by sulforhodamine B assay relative to control; settings: DU-145, 48 h, read-out: Activity
HOP-62 = experiment: Growth inhibition of human HOP62 cells assessed as cell growth at 10 uM after 48 hrs by sulforhodamine B assay relative to control; settings: HOP-62, 48 h, read-out: Activity
HCC 2998 = experiment: Growth inhibition of human HCC2998 cells assessed as cell growth at 10 uM after 48 hrs by sulforhodamine B assay relative to control; settings: HCC 2998, 48 h, read-out: Activity
NCI/ADR-RES = experiment: Growth inhibition of human NCI/ADR-RES cells assessed as cell growth at 10 uM after 48 hrs by sulforhodamine B assay relative to control; settings: read-out: Activity
NCI-H226 = experiment: Growth inhibition of human NCI-H226 cells assessed as cell growth at 10 uM after 48 hrs by sulforhodamine B assay relative to control; settings: NCI-H226, 48 h, read-out: Activity
TK-10 = experiment: Growth inhibition of human TK10 cells assessed as cell growth at 10 uM after 48 hrs by sulforhodamine B assay relative to control; settings: TK-10, 48 h, read-out: Activity
PC-3 = experiment: Growth inhibition of human PC3 cells assessed as cell growth at 10 uM after 48 hrs by sulforhodamine B assay relative to control; settings: PC-3, 48 h, read-out: Activity
NCI-H322M = experiment: Growth inhibition of human NCI-H322M cells assessed as cell growth at 10 uM after 48 hrs by sulforhodamine B assay relative to control; settings: read-out: Activity
M14 = experiment: Growth inhibition of human M14 cells assessed as cell growth at 10 uM after 48 hrs by sulforhodamine B assay relative to control; settings: M14, 48 h, read-out: Activity

SMILES | growth at 10 µM (SK-OV-3) [%] | growth at 10 µM (RXF 393) [%] | growth at 10 µM (MCF7) [%] | growth at 10 µM (CCRF-CEM) [%] | growth at 10 µM (BT-549) [%] | growth at 10 µM (Hs-578T) [%] | growth at 10 µM (786-0) [%] | growth at 10 µM (EKVX) [%] | growth at 10 µM (HT-29) [%] | growth at 10 µM (MOLT-4) [%] | growth at 10 µM (SK-MEL-2) [%] | growth at 10 µM (U-251) [%] | growth at 10 µM (HOP-92) [%] | growth at 10 µM (MDA-MB-468) [%] | growth at 10 µM (NCI-H23) [%] | growth at 10 µM (SNB-75) [%] | growth at 10 µM (UO-31) [%] | growth at 10 µM (ACHN) [%] | growth at 10 µM (SK-MEL-28) [%] | growth at 10 µM (NCI-H522) [%] | further results
COc1ccc(Cn2cc(C(=O)N/N=C3/C(=O)Nc4ccc(F)cc43)nn2)cc1 | 98.9 | 110 | 89.5 | 95 | 116 | 111 | 97.6 | 106 | 91.8 | 107 | 109 | 99.9 | 98.8 | 87.8 | 99.5 | 104 | 93.2 | 110 | 116 | 86.1 | growth at 10 µM (T47D): 85.9%; growth at 10 µM (COLO 205): 111%; growth at 10 µM (IGROV-1): 101%; growth at 10 µM (SNB-19): 96.8%; growth at 10 µM (MDA-MB-231): 106%; growth at 10 µM (DU-145): 103%; growth at 10 µM (HOP-62): 102%; growth at 10 µM (HCC 2998): 99.3%; growth at 10 µM (NCI/ADR-RES): 96.7%; growth at 10 µM (NCI-H226): 98.5%; growth at 10 µM (TK-10): 102%; growth at 10 µM (PC-3): 98.4%; growth at 10 µM (NCI-H322M): 102%; growth at 10 µM (M14): 111%
COc1ccc(Cn2cc(C(=O)N/N=C3/C(=O)Nc4ccc(F)c(Cl)c43)nn2)cc1 | 116 | 104 | 91.8 | 109 | 117 | 112 | 103 | 108 | 98 | 96.8 | 95.6 | 103 | 129 | 108 | 98 | 103 | 92.4 | 111 | 115 | 84 | growth at 10 µM (T47D): 110%; growth at 10 µM (COLO 205): 115%; growth at 10 µM (IGROV-1): 110%; growth at 10 µM (SNB-19): 101%; growth at 10 µM (MDA-MB-231): 109%; growth at 10 µM (DU-145): 96.6%; growth at 10 µM (HOP-62): 112%; growth at 10 µM (HCC 2998): 104%; growth at 10 µM (NCI/ADR-RES): 104%; growth at 10 µM (NCI-H226): 93.2%; growth at 10 µM (TK-10): 101%; growth at 10 µM (PC-3): 105%; growth at 10 µM (NCI-H322M): 105%; growth at 10 µM (M14): 107%
